Data: patent US11925653B2, “Combination therapy effective against microorganisms, including drug resistant microorganisms” (Fleurir ABX LLC, priority 2021, dated 2024)
Marks after values point to notes of the source that are not given here.

Columns and labels:
[1] = representative pharmacokinetic parameters; type: in vivo
Description: The therapeutically effective amount may be modified by pharmacokinetic, and pharmacodynamic analysis as is understood in the field. In some embodiments, the novel composition may be provided prophylactically or preventatively or protectively, which may, in some instances, be at or below a therapeutically effective amount.

K. pneumoniae = assay: MIC and synergy checkerboard assay, broth microdilution; type: cell-based
Procedure: (§1) The described novel combination was tested against both reference, and clinically resistant strains of S. aureus, E, coli, K. pneumoniae, and P. aeruginosa. Reference and clinical isolates were obtained from the American Type Culture Collection (ATCC, Manasas, VA.) and International Health Management Associates, Inc. (Schaumberg, IL). Bacteria were cultured in trypticase soy broth, concentrated 10-fold by centrifugation, and cryopreserved in the same medium containing 20% glycerol by holding at −80° C. Every two weeks a small amount of frozen culture was removed aseptically, and streaked on fresh trypticase soy agar plates to act as a working inoculum. Following overnight growth at about 37° C., the plates were wrapped in parafilm, and held at about 4° C. Bacteria (4-5 colonies) were then aseptically transferred into broth growth medium for assays as needed.
(§2) Minimum inhibitory concentration (MIC) assays were performed in a manner as described for the CLSI Agar dilution or broth microdilution assay guideline (see, Clinical Laboratory Standards Institute, 2009, Methods for Dilution Antimicrobial Susceptibility Tests for Bacteria That Grow Aerobically; Approved Standard, Eighth Edition, M07-A8, Vol. 29, No. 2). For example, known antibiotics or the compositions described herein were dissolved, serially diluted, and then added to tempered molten Mueller-Hinton Agar before pouring of plates; or were dissolved, and then serially diluted in 100 μL cation-adjusted Mueller-Hinton broth across the assay plate in the classical 2-fold geometric format. D-glucose-6-phosphate was included as a medium supplement in both agar, and broth at a concentration of 50 mg/L. Antibiotic concentrations for agar assay were at the final concentration. Antibiotic concentrations for broth microdilution in each well at this point were double what the final assay concentration would be. Bacterial inocula were prepared by swabbing several colonies from a fresh agar plate, and re-suspending the bacteria to a density that was the 0.5 McFarland turbidity standard, considered close or equivalent to 1×10^8 CFU/mL. For agar dilution, a steers replicator was utilized to deliver 1×10^4 CFU/spot. For broth microdilution, the bacterial inocula were diluted in the cation-adjusted Mueller-Hinton broth to 1×10^6 CFU/mL, and 100 μL was overlayered onto the wells containing a diluted antibiotic or a composition described. Following incubation as per the guideline, results were recorded as growth or no growth, and the lowest concentration of the antibiotic or the composition described where no growth was observed was declared the MIC.
(§3) To assay for synergy of antibacterial combinations, a recognized synergy checkerboard assay, adapted from the CLSI guideline microdilution assay, was utilized (see Eliopoulos, G. M., and Moellering, R. C, Jr., 1996. Antimicrobial Combinations, pg. 330-396. In: Lorian, V. (Ed.), Antibiotics in Laboratory Medicine, 4th Ed., Williams & Wilkins; Baltimore, MD). In the case of the agar dilution method, each antibiotic alone, or in combination was added to agar prior to plate pouring. For broth microdilution, the first compound (or antibiotic or agent) was diluted in cation-adjusted Mueller-Hinton broth across the plate along the horizontal axis with each well in a row containing 50 μL of an identical concentration of compound (or antibiotic). Along the vertical axis a dilution series of the second compound (or antibiotic) was dispensed. At this point the drug concentrations are four-fold of the final desired working concentration. […] Following incubation, wells with no growth are noted. […] FIC=(MIC-A combination/MIC-A alone)+(MIC-B combination/MIC-B alone).
(§4) In the above, FIC: Synergy=FIC<0.5; Additive=FIC>0.5-1; Indifferent=FIC>1-2; Antagonism=FIC>2-4.

Escherichia coli [2] = assay: as above; type: cell-based
Procedure: as §1, §2, §3, §4

Staphylococcus aureus = assay: minimum bactericidal concentration (MBC) assay; type: cell-based
Procedure: (§5) Synergy was also assayed by both agar, and broth microdilution methods. Additional information gathered about the synergistic effect of the described composition as a combination therapy was evaluated by determining bacterial killing effect. This was performed as described above for the checkerboard synergy assay with the exception that the bacterial count in an assay well was determined by plating at the beginning of the experiment, and identifying at the end of incubation for an assay well where growth was inhibited. This has been adapted from both the broth microdilution, and the bactericidal assays (Clinical Laboratory Standards Institute (1999) Methods for Determining Bactericidal Activity of Antimicrobial Agents; Approved Guideline M26-A, Vol. 19, No. 18). […] The value derived was the reduction in bacterial numbers (viability) for the compounds when alone versus the described composition comprising the combined antibiotics.
(§6) As there is no published definition for bactericidal synergy, MIC metric was utilized.

Enterococcus faecalis [3] = assay: minimum bactericidal concentration (MBC) assay; type: cell-based
Procedure: as §5, §6

Escherichia coli [4] = assay: minimum bactericidal concentration (MBC) assay; type: cell-based
Procedure: as §5, §6

bacteria = assay: spontaneous mutational frequency (SMF; resistance); type: cell-based; conditions: resistant colonies observed divided by total inoculum; plates with 4-fold MIC of the combination or 2-fold MIC of each antibiotic alone
Procedure: MIC was further evaluated to confirm resistance, and the spontaneous mutational frequency was calculated based on the following equation: […]
The spontaneous mutational frequency (SMF; resistance) was calculated as the number of resistant colonies observed divided by the total inoculum.

Enterococcus faecalis [5] = assay: MIC and synergy checkerboard assay, broth microdilution; type: cell-based
susceptible bacteria = conditions: susceptible strains of Escherichia coli and Enterococcus faecalis; cited from earlier work
[6] = Enterococcus faecalis (ATCC 29212)
[7] = Enterococcus faecalis (MGH-01) (VanA)

C[C@@H]1O[C@@H]1P(=O)(O)O [Fosfomycin, cis-1,2-epoxypropyl phosphonic acid]
kel (elimination rate constant) ([1]; Dose: Fosfomycin 3000 mg, trimethoprim 720 mg): 0.122 h⁻¹
half-life ([1]; in vivo, 3000 mg, read-out: T ½ (converted)): 5.7 h
Tmax ([1]; in vivo, read-out: Tmax): 2 h
MIC (Combo as F/DP/SM; second compound as DP/SM) (K. pneumoniae; K. pneumoniae 848788): >64* μg/ml
MIC (Combo as F/DP/SM; second compound as DP/SM) (K. pneumoniae; K. pneumoniae 857147): 16 µg/mL
MIC (Combo as F/DP/SM; second compound as DP/SM) (K. pneumoniae; K. pneumoniae 857187): 64 µg/mL
MIC (Combo as F/DP/SM; second compound as DP/SM) (K. pneumoniae; K. pneumoniae 868968): >64* μg/ml
MIC (Combo as F/DP/SM; second compound as DP/SM) (K. pneumoniae; K. pneumoniae 868972): 64 µg/mL
MIC (Combo as F/DP/SM; second compound as DP/SM) (K. pneumoniae; K. pneumoniae 869028): >64* μg/ml
MIC (Combo as F/DP/SM; second compound as DP/SM) (K. pneumoniae; K. pneumoniae 875638): 32 µg/mL
MIC (Combo as F/DP/SM; second compound as DP/SM) (K. pneumoniae; K. pneumoniae 892483): >64* μg/ml
MIC (Combo as F/DP/SM; second compound as DP/SM) (K. pneumoniae; K. pneumoniae 926439): 64 µg/mL
MIC (Combo as F/DP/SM; second compound as DP/SM) (Escherichia coli [2]; Escherichia coli 846439): 32 µg/mL
MIC (Combo as F/DP/SM; second compound as DP/SM) (Escherichia coli [2]; Escherichia coli 846446): 2 µg/mL
MIC (Combo as F/DP/SM; second compound as DP/SM) (Escherichia coli [2]; Escherichia coli 846450): 16 µg/mL
MIC (Combo as F/DP/SM; second compound as DP/SM) (Escherichia coli [2]; Escherichia coli 857021): 32 µg/mL
MIC (Combo as F/DP/SM; second compound as DP/SM) (Escherichia coli [2]; Escherichia coli 863686): 32 µg/mL
MIC (Combo as F/DP/SM; second compound as DP/SM) (Escherichia coli [2]; Escherichia coli (854535)): 64 µg/mL
MIC (Combo as F/DP/SM; second compound as DP/SM) (Escherichia coli [2]; Escherichia coli (928017)): 64 µg/mL
MIC (Combo as F/DP/SM; second compound as DP/SM) (Escherichia coli [2]; Escherichia coli (ATCC 25922)): 8 µg/mL
MBC, lowest concentration providing a >3-log reduction within 24 hours (Combo as F/DP/SM; second compound as DP/SM) (Staphylococcus aureus; Staphylococcus aureus (918019 - MRSA)): 128 μg/ml
MBC, lowest concentration providing a >3-log reduction within 24 hours (Combo as F/DP/SM; second compound as DP/SM) (Staphylococcus aureus; Staphylococcus aureus (959797 - MRSA)): 64 μg/ml
MBC, lowest concentration providing a >3-log reduction within 24 hours (Combo as F/DP/SM; second compound as DP/SM) (Staphylococcus aureus; Staphylococcus aureus (ATCC 29213 - MSSA)): 128 μg/ml
MBC, lowest concentration providing a >3-log reduction within 24 hours (Combo as F/DP/SM; second compound as DP/SM) (Staphylococcus aureus; Staphylococcus aureus (ATCC 33591) (MRSA)): 256 μg/ml
MBC, lowest concentration providing a >3-log reduction within 24 hours (Combo as F/DP/SM; second compound as DP/SM) (Staphylococcus aureus; Staphylococcus aureus (MGH-04)): 256 μg/ml
MBC, lowest concentration providing a >3-log reduction within 24 hours (Combo as F/DP/SM; second compound as DP/SM) (Staphylococcus aureus; Staphylococcus aureus (USA-300 CDC- MRSA)): 256 μg/ml
MBC, lowest concentration providing a >3-log reduction within 24 hours (Combo as F/DP/SM; second compound as DP/SM) (Enterococcus faecalis [3]; [6]): ≥512 μg/ml
MBC, lowest concentration providing a >3-log reduction within 24 hours (Combo as F/DP/SM; second compound as DP/SM) (Enterococcus faecalis [3]; [7]): ≥512 μg/ml
MBC, lowest concentration providing a >3-log reduction within 24 hours (Combo as F/DP/SM; second compound as DP/SM) (Enterococcus faecalis [3]; Enterococcus faecalis (MGH-06)): 512 μg/ml
MBC, lowest concentration providing a >3-log reduction within 24 hours (Combo as F/DP/SM; second compound as DP/SM) (Escherichia coli [4]; Escherichia coli (854535)): 256 μg/ml
MBC, lowest concentration providing a >3-log reduction within 24 hours (Combo as F/DP/SM; second compound as DP/SM) (Escherichia coli [4]; Escherichia coli (928017)): 256 μg/ml
MBC, lowest concentration providing a >3-log reduction within 24 hours (Combo as F/DP/SM; second compound as DP/SM) (Escherichia coli [4]; Escherichia coli (ATCC 25922)): 32 μg/ml
frequency of spontaneous mutants resistant (spontaneous mutational frequency, SMF) (bacteria): 6.33×10^−6
MIC (Combo as F/DP/SM; second compound as DP/SM) (Enterococcus faecalis [5]; E. faecalis 1082155): 32 µg/mL
MIC (Combo as F/DP/SM; second compound as DP/SM) (Enterococcus faecalis [5]; E. faecalis 1120278): 64 µg/mL
MIC (Combo as F/DP/SM; second compound as DP/SM) (Enterococcus faecalis [5]; E. faecalis 1129099): 4 µg/mL
MIC (Combo as F/DP/SM; second compound as DP/SM) (Enterococcus faecalis [5]; E. faecalis 1175598): 32 µg/mL
MIC (Combo as F/DP/SM; second compound as DP/SM) (Enterococcus faecalis [5]; E. faecalis 10864321): 32 µg/mL
MIC (Combo as F/DP/SM; second compound as DP/SM) (Enterococcus faecalis [5]; [6]): 64 µg/mL
MIC (Combo as F/DP/SM; second compound as DP/SM) (Enterococcus faecalis [5]; [7]): 256* μg/ml
MIC (Combo as F/DP/SM; second compound as DP/SM) (Enterococcus faecalis [5]; Enterococcus faecalis (MGH-06)): 128* μg/ml
MIC (susceptible bacteria): ≤ 64 µg/mL
